# Where two headings read alike, the source gives them in different places.
# What was measured:
# [1] = tested on: DSS induced acute colitis; details: for Hist score (histological score): epithelium 0-4 plus infiltration 0-4; for Hist score (histological score) / Col Length (colon length): tenth day; for Hist score (histological score) / FOB (fecal occult blood) / Weight / DAI (disease active index) / Col Length (colon length): 1 mg/kg (R-B, S-B 10 mg/kg; RS-C 2 mg/kg); for Hist score (histological score) / FOB (fecal occult blood) / Weight / Col Length (colon length): mean ± SD; for FOB (fecal occult blood): grade 0, 2, 4; for FOB (fecal occult blood) / Weight / Col Length (colon length): i.g. daily 8 days; for DAI (disease active index): score 0 to 12, i.g. daily 8 days from 2nd day of DSS, n=5; for colon histology (H&E), in words: Example 1, compared with untreated DSS mice
# Excerpt: In one embodiment, IBD was induced in mice by add DSS into drink water for 7 days. […] (Cooper, S. et al., Clinic pathologic study of dextran sulfate sodium experimental murine colitis, Laboratory Investigation, vol. 69, no. 2, p. 238-249, 1993)
# The mice were scarified at day 10th for anatomy and histology evaluations. […] Each of the above histological features was scored individually and added together which is then collectively expressed as “histological score”, for quantitative evaluation (Cooper, S. et al., above).
# Male C57BL mice (8-10 weeks, 18-20 g) were grouped into control (drinking water only), DSS and DSS plus treatment groups (n=5). Acute colitis was induced by feeding mice with 2% (w/v) dextran sulfate sodium (DSS) (molecular mass 36-50 kDa) added to the drinking water given ad libitum for 7 days. At the end of seventh day, DSS was removed and animals received only drinking water for 2 days. The animals were euthanized for anatomical and histological examination at the tenth day after DSS ingestion.
# R-salbutamol (R-S) (1 mg/kg, S-salbutamol (S-S) (1 mg/kg), R-terbutaline (R-T) (1 mg/kg), S-terbutaline (S-T) (1 mg/kg), R-bambuterol (10 mg/kg), S-bambuterol (S-B) (10 mg/kg), R-clenbuterol (R-C) (1 mg/kg), RS-clenbuterol (RS-C) (2 mg/kg) were administered i.g. daily, starting from the 2nd day of DSS induction for consecutive 8 days. Dexamethasone (Dex), 1 mg/kg) was used as a reference drug.
# Evaluation of disease symptoms and histological changes Disease activity index (DAI): Animals were monitored daily for weight, water/food consumption, morbidity, stool consistency and fecal blood. […] The colon length was recorded as an indicator of inflammation. The entire colon was cut open longitudinally and gently flushed with sterile phosphate-buffered saline (PBS) to remove any traces of feces for pathology preparation. Colon segments were fixed in 10% neutral buffered formalin. Tissues were embedded in paraffin, sectioned, mounted on slides. H&E-stained paraffin section images were acquired. Pathological evaluation was conducted in a blinded manner.
# Histological Score: the scores were given as follows: epithelium, 0=normal morphology, 1=loss of goblet cells, 2=loss of goblet cells in large areas, 3=loss of crypts, and 4=loss of crypts in large areas; and inflammation cells infiltration, 0=no infiltrate, 1=infiltrate around the crypt basis, 2=infiltrate reaching the muscularis mucosae, 3=extensive infiltration reaching the muscularis mucosae and thickening of the mucosa with abundant edema, and 4=infiltration of the submucosa. Data were presented as mean±the standard deviation (SD).
# [2] = tested on: DSS induced sub-acute colitis; assay type: in vivo; design: DAI (disease active index) / FOB (fecal occult blood) / Hist score (histological score): scale not given here; Weight / Col Length (colon length): unit not given here; details: for Col Length (colon length) / DAI (disease active index) / FOB (fecal occult blood) / Hist score (histological score) / Weight: one week treatment, evaluation at 23rd day, R-S, S-S 1 mg/kg, R-B, S-B 10 mg/kg; for length of colon-rectors, in words: sub-acute DSS colitis; for length of colon-rectors, in words / histological index / histological score, in words / fecal occult blood, in words / DAI, in words: compared with untreated DSS mice; for body weights, in words / histological index / histological score, in words / fecal occult blood, in words / DAI, in words: sub-acute or chronic DSS colitis; for fecal occult blood, in words: day 14th and 22nd
# Excerpt: This invention also disclosed the used of R-salbutamol for treatment of sub acute or chronic phases of IBD. In one embodiment, IBD was induced by DSS as mentioned above, along with the treatment of R-salbutamol, at day 7th, DSS was removed and replaced with drinking water for additional 2 weeks. The disease active index (DAI) of mice was examined and evaluated periodically. The mice were scarified for pathological and histological evaluations at day of 23rd. In DSS induce IBD mice, there were significant loss of weight and fecal occult blood at day 14th and 22nd. The overall condition of colitis was severe although there was slightly improvement comparing the day 7th. The colon-rector length was significant shortened, and histological score were significant higher from control. In mice with DSS induced colitis, there were significant mononuclear leucocytes infiltration, few newly grew crypts with architectural disarray, denegation of epithelia, mucosa aberrant. There was also deep mucosal lymphocytosis, destruction of lamina propria and sometimes, transmural inflammation.
# Same as example 1, except • 1), Three weeks' study with one week treatment.
# DSS and all the treatment was removed and replaced with drinking water at the end of 1st week. Mice were given drink water and food ad libitum for additional 2 weeks.
# [3] = tested on: DSS induced sub-acute colitis; assay: Prolonged (two weeks) treatment in DSS induced sub-acute colitis; assay type: in vivo, mice; details: evaluation at 23rd day, salbutamol 1 mg/kg, bambuterol 10 mg/kg
# Excerpt: Same as example 2, except. 1), Two Weeks Treatment within a Three Weeks of Study
# DSS was removed from drinking water at the end of 1st week. The treatments were started at 1st day for consecutive 14 days (2 weeks). Only drinking water given for the 3rd week. The evaluation and examination were made at 23rd day as did in example 1.
# [4] = tested on: knee joints (articular cartilage, meniscus); assay: Damage of knee joints in DSS induced IBD mice; assay type: in vivo; details: compared with untreated DSS mice
# Excerpt: In one embodiment, in DSS induced IBD mice, there was also a damage of knee joints. The articular cartilage structure became thinner and partially destroyed. The chondrocytes were degenerated, decreased and clustered. The meniscuses were damaged and lost its structural integrity. In X-ray, the layer of articular cartilage was thinner and bone structure was decreased. […] The articular cartilage and bone structure increased toward normal.
# [5] = tested on: IMQ-induced Psoriasis-Like Skin lesions; assay: IMQ-induced psoriasis-like skin lesions; assay type: in vivo, mice; details: dorsal skin, IMQ-induced psoriasis mice
# Description: Mice were divided into control, psoriasis and psoriasis plus treatment groups, (n=8 in each group). Psoriasis were induced by topical application of imiquimod cream (62.5 mg) on shaved dorsal skin for seven consecutive days. Vaseline was used in control group. There were four treatment groups: three doses of R-salbutamol (R-Sal) (0.5 mg, 1 mg, 2 mg/kg) and Dexamethasone (1 mg/kg) as positive control. All the treatments and same volume of saline (in control group) were administered orally. In some experiment, R-bambuterol (long-last beta2 agonist) was used as an additional treatment group (n=3). Psoriasis Area Severity Index were used for evaluation. Each of the scores for erythema, scaling and skin thickness were measured separately and then group together as a calculative score. (FIG. 2)
# [6] = tested on: DNCB induced allergic contact dermatitis; assay: DNCB induced allergic contact dermatitis model (eczema); assay type: in vivo, mice; details: oral 8 days, indomethacin 5 mg/kg
# Description: Mice was shaved at abdominal area DNCB (100 μL 0.5%) is dissolved and applied to the shaved skin to induce Atopica dermatitis for 2 consecutive days. At day 8th, DNCB was applied to both inner and outer surfaces of ears to induce eczema. Treatment of R-salbutamol and indomethacin were given orally at day 1st for consecutive 8 days. The mice were scarified at day 9th for examination and evaluation. Mice were divided into four groups (n=8), namely A, Control; B. Eczema (DNCB); C. Eczema plus R-Salbutamol of 0.05, 0.1 or 0.2 mg/kg; D. Eczema plus indomethacin of 5 mg/kg. The inflammation scores were evaluated according to swelling, erythema, scratch and thickness of both ears. [table]
# TNBS-induced colitis = TNBS-induced colitis (model for Crohn's disease); assay type: in vivo, Male mice; details: TNBS treated mice
# Excerpt: Male mice colitis was induced by rectal co-administration of ethanol and TNBS (Trinitrobenzenesulfonic acid). Severe colitis in mice that was characterized by weight loss and diarrhea. Histologically there were loss of normal structures, visible discrete epithelioid granuloma, multiple erosive lesions, massive transmural inflammation infiltration of lymphocytes, and the loss of goblet cells. […] There was significant alleviation of lesions, few inflammatory infiltration with growing crypts and recovery mucosa epithelia along the column. […] In addition, in TNBS treated colitis mice, there were perianal symptoms: erythema, abscesses and ulcers found in some mice, which may lead to perianal fissures or fistulas. […] The therapeutically effects of R-salbuterol, R-clenbuterol and R-bambuterol on the symptoms in TNBS induced Crohn's disease has never been reported in prior art.
# [7] = acute DSS colitis, compared with untreated DSS mice
# [8] = R-Salbutamol 0.05, 0.1 or 0.2 mg/kg
compound,measurement,setting,value
"C[C@@H]1C[C@H]2[C@@H]3CCC4=CC(=O)C=C[C@]4(C)[C@@]3(F)[C@@H](O)C[C@]2(C)[C@@]1(O)C(=O)CO [DEX, Dexamethasone]",Hist score (histological score),[1],6 ± 0.5
same,FOB (fecal occult blood),[1],2.5 ± 0.5
same,Weight,[1],88 ± 2.4
same,DAI (disease active index),[1],7
same,Col Length (colon length),[1],7.1 ± 0.2
"CC(C)(C)NCC(O)c1cc(Cl)c(N)c(Cl)c1 (centres unmarked) [RS-C, RS-clenbuterol]","DAI, in words",[1]; [7],much less improvement than DSS mice treated with R-clenbuterol
same,"histological score, in words",[1]; [7],better than DSS untreated but worse than R-enantiomer treated mice
same,Hist score (histological score),[1],6 ± 0.5
same,FOB (fecal occult blood),[1],4 ± 0.1
same,Weight,[1],87 ± 2
same,DAI (disease active index),[1],10
same,Col Length (colon length),[1],6.5 ± 0.2^
"CN(C)C(=O)Oc1cc(OC(=O)N(C)C)cc([C@H](O)CNC(C)(C)C)c1 [S-B, S-bambuterol]",Col Length (colon length),[2],6.8 ± 0.1
same,DAI (disease active index),[2],12
same,FOB (fecal occult blood),[2],3.9 ± 0.1
same,Hist score (histological score),[2],6.9 ± 1^
same,Weight,[2],96 ± 1.1
same,"length of colon-rectors, in words",[2],shorter
same,"body weights, in words",[2],lower
same,"histological index / histological score, in words",[2],markedly higher than untreated DSS mice
same,"fecal occult blood, in words",[2],more severe
same,"DAI, in words",[3],markedly higher than untreated DSS group
same,"histological score, in words",[3],markedly higher than untreated DSS group
same,"damage of articular cartilage, meniscus and bone structure of knee joints",[4],exacerbated
same,"colon histology (H&E), in words",[1],no signs of improvements
same,Hist score (histological score),[1],7.5 ± 1^
same,FOB (fecal occult blood),[1],2.5 ± 0.5
same,Weight,[1],81 ± 3.2
same,DAI (disease active index),[1],12
same,Col Length (colon length),[1],6 ± 0.6
"CC(C)(C)NC[C@@H](O)c1ccc(O)c(CO)c1 [S-S, S-salbutamol]",Col Length (colon length),[2],6.5 ± 0.9
same,DAI (disease active index),[2],13
same,FOB (fecal occult blood),[2],4.5 ± 0.3
same,Hist score (histological score),[2],7.7 ± 0.5
same,Weight,[2],95 ± 0.8
same,"length of colon-rectors, in words",[2],shorter
same,"body weights, in words",[2],lower
same,"DAI, in words",[2],much worse
same,"histological index / histological score, in words",[2],markedly higher than untreated DSS mice
same,"fecal occult blood, in words",[2],more severe
same,"DAI, in words",[3],markedly higher than untreated DSS group
same,"histological score, in words",[3],markedly higher than untreated DSS group
same,"damage of articular cartilage, meniscus and bone structure of knee joints",[4],exacerbated
same,histology of psoriasis skin lesions (HE),[5],worsened the psoriasis histology
same,"colon histology (H&E), in words",[1],no signs of improvements
same,toxic effects on the bowel,[1]; S-enantiomers in DSS mice,toxic to the bowel
same,"effects in prevent and treatment of DSS induced IBD, in words",[1]; acute DSS colitis,no amelioration or therapeutic effects at all
same,"DAI, in words",[1]; [7],significantly exacerbated
same,"FOB, in words",[1]; [7],significantly worsened
same,"histological score, in words",[1]; [7],significantly higher than untreated DSS mice
same,"length of colon-rector / shortening of large bowel, in words",[1]; [7],further shortened
same,Hist score (histological score),[1],7.9 ± 0.5
same,FOB (fecal occult blood),[1],4.5 ± 0.5
same,Weight,[1],80 ± 2.3
same,DAI (disease active index),[1],13
same,Col Length (colon length),[1],6.0 ± 0.9
"CC(C)(C)NC[C@@H](O)c1cc(O)cc(O)c1 [S-T, S-terbutaline]","DAI, in words",[2],much worse than untreated DSS mice
same,"histological index / histological score, in words",[2],much worse than untreated DSS mice
same,"colon histology (H&E), in words",[1],no signs of improvements
same,Hist score (histological score),[1],7 ± 1
same,FOB (fecal occult blood),[1],4 ± 0.5
same,Weight,[1],80 ± 2.9
same,DAI (disease active index),[1],12
same,Col Length (colon length),[1],5.9 ± 0.5
CC(C)(C)NC[C@@H](O)c1cc(Cl)c(N)c(Cl)c1 [S-clenbuterol],"DAI, in words",[2],much worse than untreated DSS mice
same,"histological index / histological score, in words",[2],much worse than untreated DSS mice
"COc1ccc2c(c1)c(CC(=O)O)c(C)n2C(=O)c1ccc(Cl)cc1 [indomethacin, reference compound]",erythema score of both ears,[6]; [8],lesser effects
same,thickness score of both ears,[6]; [8],lesser effects
same,eczema histology and inflammatory infiltration,[6]; dose-dependent response,little effects on eczema
infliximab,submucosa fibrosis and narrowing of intestinal lumen,TNBS-induced colitis,enhanced the submucosa fibrosis and lumen narrowing
same,submucosa fibrosis and narrowing of intestinal lumen,TNBS-induced colitis; listed as IFX,significant submucosa fibrosis and narrowing in lumen

# From patent US20210393549A1, “New use of R-enantiomer of adrenergic beta 2 receptor agonists for treatment of inflammatory bowel disease and its extra intestinal manifestations” (priority 2018, published 2021)
